{"source": "patent US20140255361A1", "about": "“ESTROGEN-RECEPTOR BASED LIGAND SYSTEM FOR REGULATING PROTEIN STABILITY” (The Board of Trustees Of The Leland Stanford Junior …, priority 2013, published 2014)", "key": {"[1]": {"biological_target": "T1, four point mutant of the estrogen receptor ligand binding domain (L384M, M421G, G521R and Y437S) fused to GFP (Homo sapiens, UniProt P03372, G521R/L384M/M421G/Y537S)", "T1 sequence (P03372 with tags, fused parts or gaps L384M/M421G/G521R/Y537S)": "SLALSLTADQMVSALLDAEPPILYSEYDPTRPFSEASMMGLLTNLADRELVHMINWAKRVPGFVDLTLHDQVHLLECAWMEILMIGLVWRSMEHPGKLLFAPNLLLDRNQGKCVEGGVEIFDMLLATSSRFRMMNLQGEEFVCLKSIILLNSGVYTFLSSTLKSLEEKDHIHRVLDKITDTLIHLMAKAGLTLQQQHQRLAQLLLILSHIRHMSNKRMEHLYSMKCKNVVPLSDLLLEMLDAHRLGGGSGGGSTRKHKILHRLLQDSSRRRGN", "conditions": "cross-hatched bars, FIG. 7A"}, "HA-Bax-ERLID": {"biological_target": "HA-Bax-ERLID (Homo sapiens, UniProt P03372)", "sequence (P03372 with tags, fused parts or gaps)": "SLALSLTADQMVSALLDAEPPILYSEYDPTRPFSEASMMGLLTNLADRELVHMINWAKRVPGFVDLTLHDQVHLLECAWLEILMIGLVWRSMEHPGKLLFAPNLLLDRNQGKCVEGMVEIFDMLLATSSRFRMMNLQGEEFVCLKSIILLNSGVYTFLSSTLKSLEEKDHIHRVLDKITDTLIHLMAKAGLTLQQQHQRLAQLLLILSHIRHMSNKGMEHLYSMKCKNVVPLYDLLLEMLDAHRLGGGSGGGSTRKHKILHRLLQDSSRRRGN"}, "GFP-ERLID fusion protein": {"biological_target": "T2, GFP-ERLID fusion protein (Homo sapiens, UniProt P03372)", "T2 sequence (P03372 with tags, fused parts or gaps)": "T1 sequence (P03372 with tags, fused parts or gaps L384M/M421G/G521R/Y537S) with M80L, G117M, R217G, S233Y"}, "HA-hUBC13-ERLID": {"biological_target": "HA-hUBC13-ERLID (Homo sapiens, UniProt P03372)"}, "HA-hRPA2-ERLID": {"biological_target": "HA-hRPA2-ERLID (Homo sapiens, UniProt P03372)"}, "GFP-ERLID": {"biological_target": "GFP-ERLID (Homo sapiens, UniProt P03372)"}, "wild-type ER LBDs": {"tested_on": "wild-type ER LBDs", "conditions": "cited from earlier work"}, "[2]": {"biological_target": "T3, estrogen receptor ligand binding domain mutants (four and six mutations) (Homo sapiens, UniProt P03372, G521R/L384M/M421G/N519S/T371A/Y537S)", "T3 construct": "residues 305-549 of estrogen receptor-1, ERS1; YFP or GFP reporter", "T3 sequence (P03372 305-549 T371A/L384M/M421G/N519S/G521R/Y537S)": "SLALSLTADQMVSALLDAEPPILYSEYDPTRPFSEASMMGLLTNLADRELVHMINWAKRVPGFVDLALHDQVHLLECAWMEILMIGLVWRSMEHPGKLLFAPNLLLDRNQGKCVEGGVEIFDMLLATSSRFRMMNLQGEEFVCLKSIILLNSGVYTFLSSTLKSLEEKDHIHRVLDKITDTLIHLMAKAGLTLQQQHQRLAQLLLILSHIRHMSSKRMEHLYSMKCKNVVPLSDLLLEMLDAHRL", "test": "Drug-dependent stability of ERLBD mutant clones with YFP or GFP reporter", "assay_type": "cell-based", "conditions": "relative to the parent ESR1 sequence"}, "GFP-LID": {"tested_on": "GFP-LID", "test": "Stability of GFP-LID fusion protein by flow cytometry (MFI) in NIH3T3 cells", "assay_type": "cell-based", "conditions": "1 μM Shield-1, 24 hours, FIG. 2", "excerpt": "(§1) In studies conducted in support of the invention, and with reference to the Materials and Methods set forth in the Examples section below, the stabilities of two LID domain fusion proteins, a first generation construct based on the FKBP protein, here called “GFP-LID” and a next-generation construct having improved characteristics, here called “GFP-LID #15” were compared. […] For this study, NIH3T3 fibroblast cells were infected with retrovirus expressing GFP-LID or GFP-LID #15. Transduced NIH3T3 cells were treated with or without 1 μM Shield-1 for 24 hours. The fluorescence intensities of these GFP fusions were analyzed by flow cytometry. The median fluorescence intensity (MFI) was used to determine the stability of the GFP fusion proteins.\n(§2) The INX ecotropic packaging cell line was transfected using standard Lipofectamine 2000 protocols. Viral supernatants were harvested 48 h post-transfection, filtered. NIH3T3 cells were incubated with the retroviral supernatants supplemented with 4 μg/ml polybrene for 4 h at 37° C. Cells were washed once with PBS and cultured in growth media for 48 hrs to allow for viral integration, then assayed as described.\n(§3) Twenty-four hours prior to analysis, transduced NIH3T3 cells were plated at 1×10^5 cells per well of a 12-well plate. […] Cells were analyzed at the Stanford Shared FACS Facility using Vantoo or LSRII with 10,000 events represented."}, "GFP-LID #15": {"tested_on": "GFP-LID #15", "test": "Stability of GFP-LID #15 fusion protein by flow cytometry (MFI) in NIH3T3 cells", "assay_type": "cell-based", "conditions": "1 μM Shield-1, 24 hours, FIG. 2", "excerpt": "as §1, §2, §3"}, "[3]": {"tested_on": "YFP-FKBP12 LID domain fusion protein", "test": "FACS screen of YFP fused to extended FKBP12 (LID domain) in NIH3T3 cells", "assay_type": "cell-based, mouse", "excerpt": "Human […] protein was modified to include a 19-residue peptide extension at the C-terminus of the FKBP12 protein. Genetic diversity was engineered into this C-terminal extension using synthetic oligonucleotides and PCR, and this library of extended FKBP genes was fused to the 3′-end of the YFP gene. A library of plasmids was stably introduced into NIH3T3 cells using retrovirus, and FACS was used to screen the transduced cells for cells expressing YFP in the absence of the small molecule ligand Shield-1. […] This domain is identified herein by SEQ ID NO: 1."}, "[4]": {"conditions": "SEQ ID NO: 3 fused to GFP, open bars, FIG. 7A"}}, "note": "Numbering of substitutions follows the chain as printed. Read-outs that look alike come from different tables or passages of the source.", "data": [{"compound": "4-hydroxytamoxifen [4-OHT]", "values": [{"measurement": "stability of mutant fusion protein (MFI)", "setting": "[1]", "value": "destabilization"}, {"measurement": "level of fusion protein by Western blot", "setting": "HA-Bax-ERLID", "value": "destabilized"}, {"measurement": "stability of GFP-ERLBD (MFI) as a function of amount of ligand", "setting": "GFP-ERLID fusion protein", "value": "dose dependent destabilization"}, {"measurement": "stability of GFP-ERLID fusion protein (MFI)", "setting": "GFP-ERLID fusion protein", "value": "induces degradation"}, {"measurement": "stability of fusion protein (MFI) after E2 washout with 4-hydroxytamoxifen in the wash solution (E2 wo+4OHT)", "setting": "GFP-ERLID fusion protein", "value": "destabilizes"}, {"measurement": "stability of fusion protein (MFI) after ligand exposure", "setting": "GFP-ERLID fusion protein", "value": "destabilizes"}, {"measurement": "stability of wild type GFP-ERLID fusion protein (MFI)", "setting": "GFP-ERLID fusion protein", "value": "destabilization"}, {"measurement": "level of fusion protein by Western blot", "setting": "HA-hUBC13-ERLID", "value": "destabilized"}, {"measurement": "level of fusion protein by Western blot", "setting": "HA-hRPA2-ERLID", "value": "destabilized"}, {"measurement": "level of fusion protein by Western blot", "setting": "GFP-ERLID", "value": "destabilized"}]}, {"compound": "O=C1CCC2(Cc3ccc(Cl)cc3)Cc3cc(O)ccc3C2=C1c1ccc(OCCN2CCCCC2)cc1", "note": "(stereo not shown) [CMP8, 9a-(4-Chlorobenzyl)-7-hydroxy-4-[4-(2-piperidin-1-ylethoxy)phenyl]-1,2,9,9a-tetrahydro-3H-fluoren-3-one]", "values": [{"measurement": "stability of mutant fusion protein (MFI)", "setting": "[1]", "value": "destabilization"}, {"measurement": "stability of wild type GFP-ERLID fusion protein (MFI)", "setting": "GFP-ERLID fusion protein; [4]", "value": "destabilization"}, {"measurement": "binding to wild-type ER LBDs", "setting": "wild-type ER LBDs", "value": "does not bind well"}, {"measurement": "dynamic range of stability in the presence of ligand", "setting": "[2]", "value": "large dynamic"}]}, {"compound": "CC[C@H](C(=O)N1CCCC[C@H]1C(=O)O[C@H](CCc1ccc(OC)c(OC)c1)c1cccc(OCCN2CCOCC2)c1)c1cc(OC)c(OC)c(OC)c1", "note": "[Shield-1]", "values": [{"measurement": "stability of GFP fusion protein (median fluorescence intensity)", "setting": "GFP-LID", "value": "destabilized"}, {"measurement": "stability of GFP fusion protein (median fluorescence intensity)", "setting": "GFP-LID #15", "value": "destabilized"}, {"measurement": "YFP levels on addition of ligand", "setting": "[3]", "value": "dropped significantly"}]}, {"compound": "C[C@]12CC[C@@H]3c4ccc(O)cc4C[C@@H](CCCCCCCCC[S+]([O-])CCCC(F)(F)C(F)(F)F)[C@H]3[C@@H]1CC[C@@H]2O", "note": "(stereo partly shown) [fulvestrant]", "values": [{"measurement": "stability of GFP-ERLID fusion protein", "setting": "GFP-ERLID fusion protein; 10 μM fulvestrant, NIH3T3 cells, FIG. 4", "value": "induced degradation"}, {"measurement": "stability of wild type GFP-ERLID fusion protein (MFI)", "setting": "GFP-ERLID fusion protein; [4]", "value": "destabilization"}]}]}
